Results: PubChem BioAssay (NCI)
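Each compound was tested at five concentrations against cells in 96-well plates for 48 hours. TGI: total growth inhibition.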

Legend:
Assay in all cases: NCI tumour cell line growth inhibition, 48 h
A498 renal = system: A498 renal
A549 NSCLC = system: A549 NSCLC
CAKI-1 renal = system: CAKI-1 renal
CCRF-CEM leukemia = system: CCRF-CEM leukemia
COLO 205 colon = system: COLO 205 colon
DLD-1 colon = system: DLD-1 colon
DMS 114 small cell lung = system: DMS 114 small cell lung
DMS 273 small cell lung = system: DMS 273 small cell lung
EKVX NSCLC = system: EKVX NSCLC
HCC-2998 colon = system: HCC-2998 colon
HCT-116 colon = system: HCT-116 colon
HCT-15 colon = system: HCT-15 colon
HL-60(TB) leukemia = system: HL-60(TB) leukemia
HOP-18 NSCLC = system: HOP-18 NSCLC
HOP-62 NSCLC = system: HOP-62 NSCLC
HOP-92 NSCLC = system: HOP-92 NSCLC
HT29 colon = system: HT29 colon
IGROV1 ovarian = system: IGROV1 ovarian
K-562 leukemia = system: K-562 leukemia
KM12 colon = system: KM12 colon
KM20L2 colon = system: KM20L2 colon
LOX IMVI melanoma = system: LOX IMVI melanoma
M19-MEL melanoma = system: M19-MEL melanoma
MALME-3M melanoma = system: MALME-3M melanoma
MCF7 breast = system: MCF7 breast
MOLT-4 leukemia = system: MOLT-4 leukemia
NCI-H226 lung = system: NCI-H226 lung
NCI-H23 lung = system: NCI-H23 lung
NCI-H460 lung = system: NCI-H460 lung
NCI-H522 lung = system: NCI-H522 lung
NCI/ADR-RES ovarian = system: NCI/ADR-RES ovarian
OVCAR-3 ovarian = system: OVCAR-3 ovarian
OVCAR-4 ovarian = system: OVCAR-4 ovarian
OVCAR-5 ovarian = system: OVCAR-5 ovarian
OVCAR-8 ovarian = system: OVCAR-8 ovarian
P388 leukemia = system: P388 leukemia
P388/ADR leukemia = system: P388/ADR leukemia
RPMI-8226 leukemia = system: RPMI-8226 leukemia
RXF 393 renal = system: RXF 393 renal
SF-268 CNS = system: SF-268 CNS
SF-295 CNS = system: SF-295 CNS
SF-539 CNS = system: SF-539 CNS
SK-MEL-2 melanoma = system: SK-MEL-2 melanoma
SK-MEL-28 melanoma = system: SK-MEL-28 melanoma
SK-MEL-5 melanoma = system: SK-MEL-5 melanoma
SK-OV-3 ovarian = system: SK-OV-3 ovarian
SN12C renal = system: SN12C renal
SN12K1 renal = system: SN12K1 renal
SNB-19 CNS = system: SNB-19 CNS
SNB-75 CNS = system: SNB-75 CNS
SNB-78 CNS = system: SNB-78 CNS
SW-620 colon = system: SW-620 colon
U251 CNS = system: U251 CNS
UACC-257 melanoma = system: UACC-257 melanoma
UACC-62 melanoma = system: UACC-62 melanoma
UO-31 renal = system: UO-31 renal
XF 498 CNS = system: XF 498 CNS

CCCNC1=C(C)C(=O)C2=C(C1=O)[C@H](COC(N)=O)[C@]1(OC)[C@@H]3N[C@@H]3CN21
TGI (A498 renal): 13.6 µM | TGI (A549 NSCLC): 8.69 µM | TGI (CAKI-1 renal): 84.5 µM | TGI (CCRF-CEM leukemia): 185 µM | TGI (COLO 205 colon): 45 µM | TGI (DLD-1 colon): 79.9 µM | TGI (DMS 114 small cell lung): 59 µM | TGI (DMS 273 small cell lung): 15.8 µM | TGI (EKVX NSCLC): 27.4 µM | TGI (HCC-2998 colon): 20.6 µM | TGI (HCT-116 colon): 32.2 µM | TGI (HCT-15 colon): 72 µM | TGI (HL-60(TB) leukemia): 19.4 µM | TGI (HOP-18 NSCLC): 53.4 µM | TGI (HOP-62 NSCLC): 4.42 µM | TGI (HOP-92 NSCLC): 43.9 µM | TGI (HT29 colon): 94.3 µM | TGI (IGROV1 ovarian): 33.3 µM | TGI (K-562 leukemia): 174 µM | TGI (KM12 colon): 56.1 µM | TGI (KM20L2 colon): 121 µM | TGI (LOX IMVI melanoma): 19.1 µM | TGI (M19-MEL melanoma): 27.3 µM | TGI (MALME-3M melanoma): 26.5 µM | TGI (MCF7 breast): 4.15 µM | TGI (MOLT-4 leukemia): 31.3 µM | TGI (NCI-H226 lung): 34 µM | TGI (NCI-H23 lung): 12.5 µM | TGI (NCI-H460 lung): 4.17 µM | TGI (NCI-H522 lung): 12.5 µM | TGI (NCI/ADR-RES ovarian): 300 µM | TGI (OVCAR-3 ovarian): 55.3 µM | TGI (OVCAR-4 ovarian): 19.3 µM | TGI (OVCAR-5 ovarian): 92.4 µM | TGI (OVCAR-8 ovarian): 53 µM | TGI (P388 leukemia): 39.2 µM | TGI (P388/ADR leukemia): 54.7 µM | TGI (RPMI-8226 leukemia): 73.9 µM | TGI (RXF 393 renal): 46.4 µM | TGI (SF-268 CNS): 77.9 µM | TGI (SF-295 CNS): 39.7 µM | TGI (SF-539 CNS): 45.3 µM | TGI (SK-MEL-2 melanoma): 34.3 µM | TGI (SK-MEL-28 melanoma): 87.8 µM | TGI (SK-MEL-5 melanoma): 2.65 µM | TGI (SK-OV-3 ovarian): 170 µM | TGI (SN12C renal): 69.2 µM | TGI (SN12K1 renal): 44.1 µM | TGI (SNB-19 CNS): 45.4 µM | TGI (SNB-75 CNS): 24.6 µM | TGI (SNB-78 CNS): 158 µM | TGI (SW-620 colon): 113 µM | TGI (U251 CNS): 40.6 µM | TGI (UACC-257 melanoma): 38.9 µM | TGI (UACC-62 melanoma): 5.74 µM | TGI (UO-31 renal): 67.3 µM | TGI (XF 498 CNS): 15.3 µM
